In patent US8481738B2, “Gonadotropin-releasing hormone receptor antagonists and methods relating thereto” (Neurocrine Biosciences, Inc., priority 2007, dated 2013):

The molecules below were run against T1, human GnRH receptor (Homo sapiens, UniProt P30968) (assay: Peptide competition radioligand binding displacement assay, human GnRH receptor membranes). Conditions: one or more of the peptide competition human receptor binding assays.
T1 construct: expressed in transfected cells; host or cells: RBL cells, stably transfected (in general)
T1 sequence (P30968 1-328): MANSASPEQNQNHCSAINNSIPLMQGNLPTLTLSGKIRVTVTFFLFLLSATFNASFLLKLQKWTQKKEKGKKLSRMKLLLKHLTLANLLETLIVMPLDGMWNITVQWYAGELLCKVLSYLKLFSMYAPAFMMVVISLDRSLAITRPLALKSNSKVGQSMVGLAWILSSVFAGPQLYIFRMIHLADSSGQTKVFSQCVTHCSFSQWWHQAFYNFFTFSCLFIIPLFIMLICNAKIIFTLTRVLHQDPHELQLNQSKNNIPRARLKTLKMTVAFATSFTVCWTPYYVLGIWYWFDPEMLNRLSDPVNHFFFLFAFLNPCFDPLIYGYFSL
Protocol: cDNA's of human, rhesus macaque, rabbit, dog and rat GnRH receptors are cloned into pcDNA3.1 (+) (Invitrogen). Full length sequences of all receptors are confirmed by DNA sequencing. HEK 293, CHO, COS-7, or rat basophilic leukemia (RBL) cells are stably transfected with human, rat, or macaque GnRH receptors and high expressing single cell clones (Bmax≧0.4 pMol/mg membrane protein) are isolated and maintained in Dulbecco's Modified Eagles Medium (DMEM) with following supplements: 10 mM HEPES; 2 mM L-glutamine; 1 mM Sodium Pyruvate; 50 U/mL penicillin, 50 μg/mL streptomycin; 10% Heat-inactivated Fetal Bovine Serum and 200 μg/mL Geneticin (G-418-Sulfate). Non-essential amino acids (0.1 mM) (Irvine Scientific; Santa Ana, Calif.) are included in the RBL cell media.
In general, initial peptide radioligand binding assays are carried out using membranes from stably transfected RBL cells. RBL stable clones are found to more consistently express high levels of GnRH receptor and are therefore used for subsequent binding studies as well as Ca^++ flux and inositol phosphate accumulation assays. Transiently transfected COS-7 cells are used for preparation of membranes containing GnRH receptors from multiple species (as well as those of mutant receptors for other studies) because of the convenience for rapidly analyzing multiple receptors.
HEK293 cells stably transfected with the human GnRH receptor are grown for two days after achieving confluence then are harvested by striking tissue culture flasks against a firm surface. Cells are collected by centrifugation at 1000 g for 5 minutes. Cell pellets are resuspended in 5% sucrose and homogenized using a polytron homogenizer for two 15 second homogenization steps. Cell homogenates are then centrifuged for 5 minutes at 3000 g to remove nuclei and the supernatant subsequently centrifuged for 30 minutes at 44,000 g to collect the membrane fraction. The membrane pellet is resuspended in GnRH binding buffer (10 mM HEPES, pH 7.5, 150 mM NaCl and 0.1% BSA) and aliquots immediately snap-frozen in liquid nitrogen and stored at −80° C. Protein content of the membrane suspension is determined using the Bio-Rad protein assay kit (Bio-Rad).
RBL cells stably transfected with the human GnRH receptor are grown to 80% confluency prior to harvesting. The cells are incubated at 37° C. for 10 min in 0.5 mM EDTA/PBS (Ca^++, Mg^++ free), and are dislodged from the plate by gentle rapping of the flasks. Cells are collected and pelleted by centrifugation at 1000 g for 5 minutes. Cell pellets are resuspended in buffer (DPBS supplemented with 10 mM MgCl2, 2 mM EGTA, pH=7.4), and cell lysis is performed using a pressure cell and applying N2 at a pressure of 900 psi for 30 min at 4° C. Unbroken cells and larger debris were removed by centrifugation at 1200 g for 10 min at 4° C. The cell membrane supernatant is then centrifuged at 45,000 g and the resulting membrane pellet is resuspended in assay buffer and homogenized on ice using a tissue homogenizer. Protein concentrations are determined using the Coomassie Plus Protein Reagent kit. Membranes are aliquoted and stored at −80° C. until ready for use.
COS-7 cells transiently transfected with GnRH receptors from different species (human, macaque, dog, rabbit, rat) or mutant GnRH receptors are prepared by bulk electroporation. COS-7 cells are obtained from American Type Cell Culture (Manassas, Va.) and are maintained in Dulbeccos's modified Eagle's medium (DMEM) (MediaTech Inc., Herndon, Va.) containing 10% fetal bovine serum, 10 mM HEPES, 2 mM L-glutamine, 1 mM sodium pyruvate, 50 U/mL penicillin, 50 μg/mL streptomycin. COS-7 cells are seeded in 500 cm^2 tissue culture plates and grown to confluency prior to cell transfection. […]

Row | Ki | Structure (SMILES)
1 | ≤ 0.1 µM | CCOC(=O)CCOc1ccccc1N(C)C(=O)c1ccc(Cl)c(-c2cnc(C(F)(F)F)cc2C#N)c1 [16-2, 3-(2-{[4-chloro-3-(4-cyano-6-trifluoromethyl-pyridin-3-yl)-benzoyl]-methyl-amino}-phenoxy)-propionic acid ethyl ester]
2 | ≤ 0.1 µM | COc1ccccc1N(C)C(=O)c1cc(-c2cnc(C(F)(F)F)cc2C#N)c(Cl)cc1OCCCN1C(=O)c2ccccc2C1=O [46-4]
3 | ≤ 0.1 µM | COc1cc(Cl)c(-c2cnc(C(F)(F)F)cc2C#N)cc1C(=O)N(C)c1c(F)cccc1F [39-6]
4 | ≤ 0.1 µM | CN(C(=O)c1ccc(Cl)c(-c2nc3ccccc3cc2C#N)c1)c1ccccc1CCCC(=O)O [15-1, 4-(2-{[4-Chloro-3-(3-cyano-quinolin-2-yl)-benzoyl]-methyl-amino}-phenyl)-butyric acid]
5 | ≤ 0.1 µM | Cc1cccc(C)c1N(C)C(=O)c1cc(-c2nc3ccccc3cc2C#N)c(Cl)cc1OCCCCO [21-6]
6 | ≤ 0.1 µM | COc1ccccc1N(C)C(=O)c1cc(-c2cnc(C(F)(F)F)cc2C#N)c(Cl)cc1OCCc1cnccn1 [46-3]
7 | ≤ 0.1 µM | COc1ccccc1N(C)C(=O)c1cc(-c2cnc(C(F)(F)F)cc2C#N)c(Cl)cc1OCCNC(C)=O [47-1, 2-(2-Acetylamino-ethoxy)-4-chloro-5-(4-cyano-6-trifluoromethyl-pyridin-3-yl)-N-(2-methoxy-phenyl)-N-methyl-benzamide]
8 | ≤ 0.1 µM | Cc1cc(C#N)ncc1-c1cc(C(=O)N(C)c2c(C)cccc2OCCC(=O)O)ccc1Cl [11-6]
9 | ≤ 0.1 µM | COc1ccccc1N(C)C(=O)c1ccc(Cl)c(-c2nc(C)c(Cl)cc2Cl)c1 [2-80]
10 | ≤ 0.1 µM | Cc1ccccc1N(C)C(=O)c1cc(-c2cnc(C(F)(F)F)cc2C#N)c(Cl)cc1OCCCC(=O)O [20-1, 4-[5-Chloro-4-(4-cyano-6-trifluoromethyl-pyridin-3-yl)-2-(methyl-o-tolyl-carbamoyl)-phenoxy]-butyric acid]
11 | ≤ 0.1 µM | COc1cc(Cl)c(-c2cnc(C(F)(F)F)cc2C#N)cc1C(=O)N(C)c1c(OC)cccc1OC [39-3]
12 | ≤ 0.1 µM | COc1ccccc1N(C)C(=O)c1cc(-c2cnc(C(F)(F)F)cc2C#N)c(Cl)cc1OCCCOc1ccccn1 [42-15]
13 | ≤ 0.1 µM | COc1ccccc1N(C)C(=O)c1cc(-c2cnc(C(F)(F)F)cc2C#N)c(Cl)cc1OCCCC(=O)OC(C)OC(=O)OC(C)C (stereo not shown) [37-4, 4-{5-chloro-4-(4-cyano-6-trifluoromethyl-pyridin-3-yl)-2-[(2-methoxy-phenyl)-methyl-carbamoyl]-phenoxy}-butyric acid 1-isopropoxycarbonyloxy-ethyl ester]
14 | ≤ 0.1 µM | Cc1cc(C(F)(F)F)ncc1-c1cc(C(=O)N(C)c2cccc(F)c2OCCCC(=O)O)ccc1Cl [4-7]
15 | ≤ 0.1 µM | Cc1cc(Cl)ncc1-c1cc(C(=O)N(C)c2ccccc2F)ccc1Cl [2-36]
16 | ≤ 0.1 µM | COc1cccc(C)c1N(C)C(=O)c1cc(-c2nc3ccccc3cc2C#N)c(Cl)cc1OCCCCO [21-3]
17 | ≤ 0.1 µM | Cc1ccccc1N(C)C(=O)c1ccc(Cl)c(-c2ccc(Cl)nc2)c1 [2-15]
18 | ≤ 0.1 µM | COc1ccccc1CN(C)C(=O)c1cc(-c2cnc(C(F)(F)F)cc2C#N)c(Cl)cc1OC [39-17]
19 | ≤ 0.1 µM | CN(C(=O)c1ccc(Cl)c(-c2cnc(C(F)(F)F)cc2C#N)c1)c1ccccc1OCCC(=O)O [11-4, 3-(2-{[4-chloro-3-(4-cyano-6-trifluoromethyl-pyridin-3-yl)-benzoyl]-methyl-amino}-phenoxy)-propionic acid]
20 | ≤ 0.1 µM | COc1cccc(N(C)C(=O)c2cc(-c3cnc(C(F)(F)F)cc3C#N)c(Cl)cc2OC)n1 [39-23]
21 | ≤ 0.1 µM | CC(C)CCN(C)C(=O)c1cc(-c2cnc(C(F)(F)F)cc2C#N)c(Cl)cc1OCCCC(=O)O [34-23]

Row | Ki | Structure (SMILES)
22 | ≤ 0.1 µM | COc1ccccc1N(C)C(=O)c1cc(-c2cnc(C(F)(F)F)cc2C#N)c(Cl)cc1OCCCn1cncn1 [42-13]
23 | ≤ 0.1 µM | COc1ccccc1N(C)C(=O)c1cc(-c2cnc(C(F)(F)F)cc2C#N)c(Cl)cc1OCCCc1cn[nH]c1 [42-7]
24 | ≤ 0.1 µM | COC(=O)CCCOc1c(F)cccc1N(C)C(=O)c1ccc(Cl)c(-c2cnc(C(F)(F)F)cc2C#N)c1 [3-12]
25 | ≤ 0.1 µM | COc1cccc(C)c1N(C)C(=O)c1ccc(Cl)c(-c2cnc(SC)cc2C)c1 [26-1, 4-Chloro-N-(2-methoxy-6-methyl-phenyl)-N-methyl-3-(4-methyl-6-methyl-sulfanylpyridin-3-yl)-benzamide]
26 | ≤ 0.1 µM | CN(C(=O)c1cc(-c2cnc(C(F)(F)F)cc2C#N)c(Cl)cc1OCCCC(=O)O)c1ccccc1OC(F)(F)F [34-3]
27 | ≤ 0.1 µM | Cc1cccc(C)c1N(C)C(=O)c1ccc(Cl)c(-c2ncc(C(F)(F)F)cc2Cl)c1 [2-65]
28 | ≤ 0.1 µM | COC(=O)CCCOc1cccc(C)c1N(C)C(=O)c1ccc(Cl)c(-c2cnc(C(F)(F)F)cc2C#N)c1 [3-11]
29 | ≤ 0.1 µM | COc1ccc(OC)c(N(C)C(=O)c2cc(-c3cnc(C(F)(F)F)cc3C#N)c(Cl)cc2OCCCC(=O)O)c1 [34-13]
30 | ≤ 0.1 µM | CN(C(=O)c1ccc(Cl)c(-c2cnc(C(F)(F)F)cc2C#N)c1)c1ccccc1OCCN1CCC[C@H]1C(=O)O [50-3]
31 | ≤ 0.1 µM | CN(C(=O)c1ccc(Cl)c(-c2cnc(C(F)(F)F)cc2C#N)c1)c1ccccc1OCCNC(=O)NS(C)(=O)=O [41-1, 4-Chloro-3-(4-cyano-6-trifluoromethyl-pyridin-3-yl)-N-{2-[2-(3-methylsulfonyl-ureido)-ethoxy]-phenyl}-N-methyl-benzamide]
32 | ≤ 0.1 µM | COC(=O)c1ccccc1N(C)C(=O)c1ccc(Cl)c(-c2ncc(Cl)cc2C)c1 [2-72]
33 | ≤ 0.1 µM | COC(=O)c1ccc(Cl)cc1N(C)C(=O)c1cc(-c2cnc(C(F)(F)F)cc2C#N)c(Cl)cc1OC [39-8]
34 | ≤ 0.1 µM | COc1cc(Cl)c(-c2cnc(C(F)(F)F)cc2C#N)cc1C(=O)N(C)c1cc(F)ccc1OC [39-5]
35 | ≤ 0.1 µM | Cc1cccc(OCCCC(=O)O)c1N(C)C(=O)c1ccc(Cl)c(-c2cnc(C(F)(F)F)cc2C#N)c1 [4-11]
36 | ≤ 0.1 µM | Cc1cc(Cl)ncc1-c1cc(C(=O)N(C)c2ccccc2OCCCC(=O)O)ccc1Cl [4-2]
37 | ≤ 0.1 µM | COc1c(Cl)cccc1N(C)C(=O)c1ccc(Cl)c(-c2ncc(C)cc2C)c1 [2-70]
38 | ≤ 0.1 µM | COc1cccc(N(C)C(=O)c2ccc(Cl)c(-c3ncc(Cl)cc3Cl)c2)c1 [19-9]
39 | ≤ 0.1 µM | COc1ccccc1N(C)C(=O)c1cc(-c2cnc(C(F)(F)F)cc2C#N)c(Cl)cc1OCCCC(=O)OCOC(=O)C(C)(C)C [36-2, 4-{5-chloro-4-(4-cyano-6-trifluoromethyl-pyridin-3-yl)-2-[(2-methoxy-phenyl)-methyl-carbamoyl]-phenoxy}-butyric acid 2,2-dimethyl-propionyloxymethyl ester]
40 | ≤ 0.1 µM | CN(C(=O)c1ccc(Cl)c(-c2cnc(C(F)(F)F)cc2C#N)c1)c1ccccc1OCCN1CCC[C@@H]1C(=O)O [50-2]
41 | ≤ 0.1 µM | Cc1cc(Cl)c(-c2cc(C(=O)N(C)c3cccc(C)c3C)ccc2Cl)c(C)n1 [2-21]
42 | ≤ 0.1 µM | COc1ccccc1N(C)C(=O)c1ccc(Cl)c(-c2ccc(C(F)(F)F)cc2C#N)c1 [2-53]

Row | Structure (SMILES) | Ki
43 | COc1cccc(C)c1N(C)C(=O)c1cc(-c2cnc(C(F)(F)F)cc2C#N)c(Cl)cc1OCCCCO [21-1, 4-Chloro-5-(4-cyano-6-trifluoromethyl-pyridin-3-yl)-2-(4-hydroxy-butoxy)-N-(2-methoxy-6-methyl-phenyl)-N-methyl-benzamide] | ≤ 0.1 µM
